In the NIST ThermoML archive (doi:10.1016/j.fluid.2009.06.015):

Assay: excess molar enthalpy (molar enthalpy of mixing); xn = mol fraction of the nth substance listed
Details: 101 kPa, Liquid, Flow calorimetry

c1ccccc1 [benzene] + CCCCO
excess molar enthalpy [kcal/mol]
Details | 298.15 K | 313.15 K
x1 = 0.0494 | – | 0.0354
x1 = 0.0504 | 0.0282 | –
x1 = 0.0997 | 0.0566 | –
x1 = 0.1007 | – | 0.0726
x1 = 0.1497 | 0.0851 | 0.108
x1 = 0.1997 | 0.113 | –
x1 = 0.2007 | – | 0.143
x1 = 0.2495 | – | 0.175
x1 = 0.2505 | 0.141 | –
x1 = 0.3001 | 0.167 | –
x1 = 0.3002 | – | 0.206
x1 = 0.3506 | 0.191 | –
x1 = 0.3507 | – | 0.234
x1 = 0.3999 | 0.212 | –
x1 = 0.401 | – | 0.26
x1 = 0.4493 | – | 0.28
x1 = 0.4502 | 0.23 | –
x1 = 0.4993 | – | 0.297
x1 = 0.5002 | 0.246 | –
x1 = 0.5492 | – | 0.31
x1 = 0.5501 | 0.257 | –
x1 = 0.5998 | 0.265 | –
x1 = 0.601 | – | 0.317
x1 = 0.6505 | 0.267 | –
x1 = 0.6506 | – | 0.32
x1 = 0.7 | 0.264 | –
x1 = 0.7001 | – | 0.316
x1 = 0.7495 | – | 0.306
x1 = 0.7503 | 0.256 | –
x1 = 0.7996 | 0.242 | –
x1 = 0.8007 | – | 0.287
x1 = 0.8497 | 0.22 | –
x1 = 0.8498 | – | 0.259
x1 = 0.8996 | 0.185 | –
x1 = 0.9007 | – | 0.215
x1 = 0.9495 | – | 0.145
x1 = 0.9504 | 0.129 | –
